Data taken from patent publication US20120077818A1, “COMPOSITIONS COMPRISING TRANSNORSERTRALINE AND SEROTONIN RECEPTOR 1A AGONISTS/ANTAGONISTS AND USES THEREOF” (Sunovion Pharmaceuticals Inc., priority 2009, published 2012).
Entries after “also recorded” stand apart in the source; their conditions may differ.

Test system: dorsal raphe 5-HT neurons
Assay: In vivo electrophysiological recordings of dorsal raphe (DR) 5-HT neurons
Parameters: species or system rat
Procedure: Male Sprague Dawley rats (Charles River, St. Constant, QC) weighing 250 to 300 g, were used for the experiments. They were housed individually and kept under standard laboratory conditions (12:12 hour light/dark cycle with free access to food and water). All animals were handled according to the guidelines of the Canadian Council on Animal Care (CCAC) and protocols in this study were approved by the local Animal Care Committee (Ottawa Health Research Institute, Ottawa, ON, Canada).
Rats were anaesthetized with chloral hydrate (400 mg/kg; i.p.) and placed into a stereotaxic frame. The extracellular recordings of 5-HT neurons in the dorsal raphe (“DR”) were carried out using single-barrelled glass micropipettes (R&D Scientific Glass, Spencerville, Md.) preloaded with a 2 M NaCl solution. Their impedance typically ranged between 4-7 MΩ.
The single-barrelled glass micropipettes were positioned using the following coordinates (in mm from lambda): AP, +1.0 to 1.2; L, 0±0.1; V, 5 to 7. The presumed 5-HT neurons were then identified using the following criteria: a slow (0.5-2.5 Hz) and regular firing rate and long-duration (2-5 ms) bi- or triphasic extracellular waveform (Aghajanian and Vandermaelen, 1982b). […] This occasional firing pattern of 5-HT neurons was analyzed by spike interval burst analysis following the criteria set by Hajos et al. The onset of a burst was defined as the occurrence of two spikes with an interspike interval shorter than 0.005 s.
The percent of baseline firing rate were measured 60 seconds after systemic administration of the triple reuptake inhibitor. Various parameters were determined to examine the electrophysiological effects of co-administration of a transnorsertraline with WAY-100635. These parameters included the number of single spikes, bursts, cells per track and the firing rate of 5-HT neurons.
Electrophysiological data expressed as means±S.E.M of percent of baseline firing rate or as means±S.E.M of single spikes or bursts measured from the same neurons. Data were analyzed by using a one- or two-ways analysis of variance (ANOVA), with treatment, treatment and pre-treatment or treatment and brain region as main factors. Fisher's protected least significant difference test (Fisher's PLSD-test) was used to analyze the statistical significance between groups. The paired Student's t test was used in experiments comparing two groups. In each experiment, a level of p<0.05 was accepted as evidence for a statistically significant effect.

[1] = rats pre-treated with WAY-100635

Compound	number of bursts of 5-HT neurons (effect in words) [1]	number of single spikes of 5-HT neurons (effect in words) [1]	DR 5-HT firing rate (effect in words) (rats pre-treated with WAY-100635, (1R,4S)-transnorsertraline 0.5-2 mg/kg iv)	spontaneous firing rate of DR 5-HT neurons (effect in words) (WAY-100635 alone, 100 μg/kg iv)	spontaneous firing rate of DR 5-HT neurons (WAY-100635 alone, 100 μg/kg iv, printed as 1.3±0.1 vs 1.4±0.1 (n=8), in Hz (unit assumed))
N[C@@H]1CC[C@@H](c2ccc(Cl)c(Cl)c2)c2ccccc21 [(1R,4S)-transnorsertraline, (1R,4S)-trans-4-(3,4-dichlorophenyl)-1,2-3,4-tetrahydro-1-naphthalenamine]	significantly increased	significantly increased	significant increase; also recorded: markedly increased	–	–
COc1ccccc1N1CCN(CCN(C(=O)C2CCCCC2)c2ccccn2)CC1 [WAY-100635, reference compound]	–	–	–	did not alter	1.4±0.1
